Laboratory results as given in patent US9469650B2, “Melampomagnolide B derivatives” (BOARD OF TRUSTEES OF THE UNIVERSITY OF ARKANSAS, priority 2013, dated 2016).

What was measured:
MALME-3M [1] = tested on: MALME-3M
UACC-62 [2] = tested on: UACC-62
MALME-3M [3] = assay: panel of 60 human tumor cell lines, growth inhibition (Melanoma); conditions: MALME-3M
UACC-62 [4] = assay: as above; conditions: UACC-62
RPMI-8226 = assay: panel of 60 human tumor cell lines, growth inhibition (Leukemia); conditions: RPMI-8226

**Q.** For `C=C1C(=O)O[C@H]2[C@H]1CC/C(COC(=O)NC)=C\CC[C@@]1(C)O[C@@H]21` [JVM 2-57], which CC50 (CCRF-CEM) is on record?
**A.** 76.3 µM

**Q.** What about the CC50 (K-562) of the same compound?
**A.** > 100 µM

**Q.** And the CC50 (MOLT-4)?
**A.** > 100 µM

**Q.** What about the CC50 (A549/ATCC) of the same compound?
**A.** 57.7 µM

**Q.** And the CC50 (HOP-62)?
**A.** 59.5 µM

**Q.** And the CC50 (HOP-92)?
**A.** 29.7 µM

**Q.** What about the CC50 (NCI-H226) of the same compound?
**A.** 96.1 µM

**Q.** And the CC50 (NCI-H322M)?
**A.** > 100 µM

**Q.** What about the CC50 (NCI-H460) of the same compound?
**A.** 78 µM

**Q.** And the CC50 (NCI-H522)?
**A.** 6.85 µM

**Q.** And the CC50 (HCC-2998)?
**A.** 61.6 µM

**Q.** And the CC50 (HCT-15)?
**A.** 41.8 µM

**Q.** And the CC50 (HT29)?
**A.** 57 µM

**Q.** What about the CC50 (SW-620) of the same compound?
**A.** 44.7 µM

**Q.** What about the CC50 (SF-268) of the same compound?
**A.** 68.6 µM

**Q.** And the CC50 (SNB-19)?
**A.** > 100 µM

**Q.** And the CC50 (SNB-75)?
**A.** > 100 µM

**Q.** What about the CC50 (U251) of the same compound?
**A.** 53 µM

**Q.** What about the CC50 (LOX IMVI) of the same compound?
**A.** 43.2 µM

**Q.** What about the CC50 (MALME-3M [1]) of the same compound?
**A.** 55 µM

**Q.** What about the CC50 (M14) of the same compound?
**A.** 66.7 µM

**Q.** What about the CC50 (MDA-MB-435) of the same compound?
**A.** 53.1 µM

**Q.** And the CC50 (SK-MEL-2)?
**A.** 69 µM

**Q.** And the CC50 (SK-MEL-28)?
**A.** 52 µM

**Q.** And the CC50 (SK-MEL-5)?
**A.** 66 µM

**Q.** What about the CC50 (UACC-257) of the same compound?
**A.** 44.1 µM

**Q.** And the CC50 (UACC-62 [2])?
**A.** 50.5 µM

**Q.** What about the CC50 (OVCAR-5) of the same compound?
**A.** 44.3 µM

**Q.** And the CC50 (OVCAR-8)?
**A.** 57.2 µM

**Q.** And the CC50 (NCI/ADR-RES)?
**A.** > 100 µM

**Q.** And the CC50 (786-0)?
**A.** 49.6 µM

**Q.** What about the CC50 (A498) of the same compound?
**A.** 47.4 µM

**Q.** And the CC50 (CAKI-1)?
**A.** 36.6 µM

**Q.** What about the CC50 (RXF 393) of the same compound?
**A.** 44.1 µM

**Q.** What about the CC50 (SN12C) of the same compound?
**A.** 78.1 µM

**Q.** And the CC50 (TK-10)?
**A.** 31.8 µM

**Q.** And the CC50 (PC-3)?
**A.** 71.1 µM

**Q.** And the CC50 (DU-145)?
**A.** 39.3 µM

**Q.** What about the CC50 (MDA-MB-231/ATCC) of the same compound?
**A.** 56.2 µM

**Q.** What about the CC50 (HS 578T) of the same compound?
**A.** > 100 µM

**Q.** And the CC50 (BT-549)?
**A.** 33.1 µM

**Q.** And the CC50 (T-47D)?
**A.** 40.2 µM

**Q.** What about the “Percent Growth” value (MALME-3M [3]; Log10 Concentration −4.0) of the same compound?
**A.** −76%

**Q.** And the “Percent Growth” value (MALME-3M [3]; Log10 Concentration −5.0)?
**A.** 25%

**Q.** And the “Percent Growth” value (MALME-3M [3]; Log10 Concentration −6.0)?
**A.** 94%

**Q.** What about the “Percent Growth” value (MALME-3M [3]; Log10 Concentration −7.0) of the same compound?
**A.** 95%

**Q.** And the “Percent Growth” value (MALME-3M [3]; Log10 Concentration −8.0)?
**A.** 95%

**Q.** And the GI50 (MALME-3M [3]; NCI five dose)?
**A.** 4.38 µM

**Q.** And the TGI (MALME-3M [3]; NCI five dose)?
**A.** 1.77E−5

**Q.** And the “Percent Growth” value (UACC-62 [4]; Log10 Concentration −4.0)?
**A.** −86%

**Q.** And the “Percent Growth” value (UACC-62 [4]; Log10 Concentration −5.0)?
**A.** 35%

**Q.** And the “Percent Growth” value (UACC-62 [4]; Log10 Concentration −6.0)?
**A.** 86%

**Q.** And the “Percent Growth” value (UACC-62 [4]; Log10 Concentration −7.0)?
**A.** 99%

**Q.** What about the “Percent Growth” value (UACC-62 [4]; Log10 Concentration −8.0) of the same compound?
**A.** 100%

**Q.** What about the GI50 (UACC-62 [4]; NCI five dose) of the same compound?
**A.** 5.11 µM

**Q.** What about the TGI (UACC-62 [4]; NCI five dose) of the same compound?
**A.** 1.95E−5

**Q.** And the “Percent Growth” value (RPMI-8226; Log10 Concentration −4.0)?
**A.** −53%

**Q.** What about the “Percent Growth” value (RPMI-8226; Log10 Concentration −5.0) of the same compound?
**A.** 7%

**Q.** What about the “Percent Growth” value (RPMI-8226; Log10 Concentration −6.0) of the same compound?
**A.** 87%

**Q.** And the “Percent Growth” value (RPMI-8226; Log10 Concentration −7.0)?
**A.** 94%

**Q.** And the “Percent Growth” value (RPMI-8226; Log10 Concentration −8.0)?
**A.** 101%

**Q.** And the GI50 (RPMI-8226; NCI five dose)?
**A.** 2.89 µM

**Q.** And the TGI (RPMI-8226; NCI five dose)?
**A.** 1.30E−5

**Q.** For `C=C1C(=O)O[C@H]2[C@H]1CC/C(COC(=O)NCCN1CCCCC1)=C\CC[C@@]1(C)O[C@@H]21` [JVM 2-13], which CC50 (CCRF-CEM) is on record?
**A.** > 100 µM

**Q.** What about the CC50 (K-562) of the same compound?
**A.** > 100 µM

**Q.** What about the CC50 (MOLT-4) of the same compound?
**A.** > 100 µM

**Q.** What about the CC50 (A549/ATCC) of the same compound?
**A.** 98.5 µM

**Q.** What about the CC50 (HOP-62) of the same compound?
**A.** 68.5 µM

**Q.** What about the CC50 (HOP-92) of the same compound?
**A.** 42.1 µM

**Q.** And the CC50 (NCI-H226)?
**A.** > 100 µM

**Q.** What about the CC50 (NCI-H322M) of the same compound?
**A.** 61.1 µM

**Q.** And the CC50 (NCI-H460)?
**A.** 78.1 µM

**Q.** What about the CC50 (NCI-H522) of the same compound?
**A.** 7.25 µM

**Q.** And the CC50 (HCC-2998)?
**A.** 70.1 µM

**Q.** What about the CC50 (HCT-15) of the same compound?
**A.** 50.7 µM

**Q.** And the CC50 (HT29)?
**A.** 50.4 µM

**Q.** What about the CC50 (SW-620) of the same compound?
**A.** 50.3 µM

**Q.** And the CC50 (SF-268)?
**A.** 60.2 µM

**Q.** What about the CC50 (SNB-19) of the same compound?
**A.** 73.1 µM

**Q.** What about the CC50 (SNB-75) of the same compound?
**A.** 48.8 µM

**Q.** And the CC50 (U251)?
**A.** 64.1 µM

**Q.** And the CC50 (LOX IMVI)?
**A.** 56.2 µM

**Q.** And the CC50 (MALME-3M [1])?
**A.** 50.6 µM

**Q.** And the CC50 (M14)?
**A.** 55.1 µM

**Q.** And the CC50 (MDA-MB-435)?
**A.** 43.8 µM

**Q.** And the CC50 (SK-MEL-2)?
**A.** 69.7 µM

**Q.** What about the CC50 (SK-MEL-28) of the same compound?
**A.** 47.2 µM

**Q.** And the CC50 (SK-MEL-5)?
**A.** 58.3 µM

**Q.** And the CC50 (UACC-257)?
**A.** 49.9 µM

**Q.** What about the CC50 (UACC-62 [2]) of the same compound?
**A.** 50.1 µM

**Q.** And the CC50 (OVCAR-5)?
**A.** 55.2 µM

**Q.** What about the CC50 (OVCAR-8) of the same compound?
**A.** 58.4 µM

**Q.** And the CC50 (NCI/ADR-RES)?
**A.** > 100 µM

**Q.** What about the CC50 (786-0) of the same compound?
**A.** 56.2 µM

**Q.** And the CC50 (A498)?
**A.** 53.1 µM

**Q.** And the CC50 (CAKI-1)?
**A.** 40.4 µM

**Q.** And the CC50 (RXF 393)?
**A.** 37.3 µM

**Q.** And the CC50 (SN12C)?
**A.** 58.5 µM

**Q.** What about the CC50 (TK-10) of the same compound?
**A.** 35.8 µM

**Q.** What about the CC50 (PC-3) of the same compound?
**A.** 70.9 µM

**Q.** And the CC50 (DU-145)?
**A.** 42 µM

**Q.** What about the CC50 (MDA-MB-231/ATCC) of the same compound?
**A.** 56.5 µM

**Q.** What about the CC50 (HS 578T) of the same compound?
**A.** > 100 µM

**Q.** What about the CC50 (BT-549) of the same compound?
**A.** 44.3 µM

**Q.** And the CC50 (T-47D)?
**A.** 62.4 µM

**Q.** And the GI50 (MALME-3M [3])?
**A.** 1.47 µM

**Q.** What about the TGI (MALME-3M [3]) of the same compound?
**A.** 4.6e-06 M

**Q.** What about the “Percent Growth” value (MALME-3M [3]; Log10 Concentration −4.0) of the same compound?
**A.** −57%

**Q.** And the “Percent Growth” value (MALME-3M [3]; Log10 Concentration −5.0)?
**A.** −34%

**Q.** What about the “Percent Growth” value (MALME-3M [3]; Log10 Concentration −6.0) of the same compound?
**A.** 67%

**Q.** What about the “Percent Growth” value (MALME-3M [3]; Log10 Concentration −7.0) of the same compound?
**A.** 99%

**Q.** And the “Percent Growth” value (MALME-3M [3]; Log10 Concentration −8.0)?
**A.** 103%

**Q.** And the GI50 (UACC-62 [4])?
**A.** 4.86 µM

**Q.** And the TGI (UACC-62 [4])?
**A.** 1.89e-05 M

**Q.** What about the “Percent Growth” value (UACC-62 [4]; Log10 Concentration −4.0) of the same compound?
**A.** −85%

**Q.** What about the “Percent Growth” value (UACC-62 [4]; Log10 Concentration −5.0) of the same compound?
**A.** 33%

**Q.** And the “Percent Growth” value (UACC-62 [4]; Log10 Concentration −6.0)?
**A.** 88%

**Q.** And the “Percent Growth” value (UACC-62 [4]; Log10 Concentration −7.0)?
**A.** 95%

**Q.** What about the “Percent Growth” value (UACC-62 [4]; Log10 Concentration −8.0) of the same compound?
**A.** 95%
